What was measured:
Assay in all cases: relative viability (nuclei count vs DMSO), 5 days (fraction); higher = more cells survive
Daporinad + Phenformin = compound: O=C(/C=C/c1cccnc1)NCCCCC1CCN(C(=O)c2ccccc2)CC1 [Daporinad] + N=C(N)NC(=N)NCCc1ccccc1 [Phenformin] (partner 250 µM)
Summary of the method: (§1)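 Dosing by pin tool came one day after lung cancer cell lines were seeded in 1536-well plates, using either one drug or a fixed anchor-drug dose plus five library-drug doses (not always all listed) in √10 steps. After 5 days, nuclei were counted on 4× images. Relative viability is treated-well nuclei count divided by vehicle-well nuclei count, and values are medians of duplicate plates.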

Daporinad = compound: O=C(/C=C/c1cccnc1)NCCCCC1CCN(C(=O)c2ccccc2)CC1 [Daporinad]
Summary of the method: (§2)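 Viability here means nuclei in treated wells divided by nuclei in vehicle wells, reported as the median across plates. Only plates with control CV below 25% and at least one doubling passed. Lung cancer cell lines in 1536-well plates were exposed to five √10-spaced library-drug doses for 5 days and counted from 4× Hoechst images in MetaXpress.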

R406 = compound: COc1cc(Nc2ncc(F)c(Nc3ccc4c(n3)NC(=O)C(C)(C)O4)n2)cc(OC)c1OC [R406]
Summary of the method: as §2

R406 + Navitoclax = compound: COc1cc(Nc2ncc(F)c(Nc3ccc4c(n3)NC(=O)C(C)(C)O4)n2)cc(OC)c1OC [R406] + CC1(C)CCC(c2ccc(Cl)cc2)=C(CN2CCN(c3ccc(C(=O)NS(=O)(=O)c4ccc(N[C@H](CCN5CCOCC5)CSc5ccccc5)c(S(=O)(=O)C(F)(F)F)c4)cc3)CC2)C1 [Navitoclax] (partner 0.5 µM)
Summary of the method: as §1

Cell Line	relative viability (Daporinad + Phenformin; first compound 0.0005 µM)	relative viability (Daporinad + Phenformin; first compound 0.001581 µM)	relative viability (Daporinad + Phenformin; first compound 0.005 µM)	relative viability (Daporinad + Phenformin; first compound 0.01581 µM)	relative viability (Daporinad; 0.0005 µM)	relative viability (Daporinad; 0.001581 µM)	relative viability (Daporinad; 0.005 µM)	relative viability (Daporinad; 0.01581 µM)	relative viability (R406; 0.08 µM)	relative viability (R406; 0.253 µM)	relative viability (R406; 0.8 µM)	relative viability (R406; 2.53 µM)	relative viability (R406; 8 µM)	relative viability (R406 + Navitoclax; first compound 0.08 µM)	relative viability (R406 + Navitoclax; first compound 0.253 µM)	relative viability (R406 + Navitoclax; first compound 0.8 µM)	relative viability (R406 + Navitoclax; first compound 8 µM)	relative viability (R406 + Navitoclax; first compound 2.53 µM)
NCI-H522	0.654	0.758	0.695	0.682	1.04	0.931	1.06	0.738	0.889	1.1	1.13	0.78	0.617	–	–	–	–	–
HCC-15	0.421	0.617	0.567	0.586	0.967	1.15	1.14	1.05	0.919	1.23	1.17	0.81	0.629	0.732	0.77	0.781	0.509	–
A-427	0.298	0.356	0.295	0.191	0.952	1.12	0.982	0.602	0.974	1.23	1.14	0.708	0.639	0.912	1.02	0.981	0.78	0.572
NCI-H2228	0.352	0.301	0.311	0.417	0.925	0.846	1.24	0.973	1.1	1.3	1.15	0.385	0.298	1.17	1.33	0.996	0.168	0.628
NCI-H1734	0.437	0.496	0.479	0.299	1.04	1.14	0.975	0.453	0.985	1.18	1.16	0.269	0.418	0.789	0.982	1.13	0.607	0.813
NCI-H441	0.813	0.82	0.883	0.734	0.898	1.13	1.18	1.07	0.903	1.16	1.31	0.424	0.611	–	0.584	0.818	0.446	–
PC-3 [JPC-3]	0.494	0.481	0.478	0.471	1.02	1.1	1.14	1.12	1.04	1.17	1.04	0.819	0.647	0.828	0.819	0.833	0.6	0.685
NCI-H1915	0.328	0.398	0.362	0.365	1.01	1.13	1.07	1.03	1.01	1.15	1.05	0.667	0.835	0.769	0.799	0.789	0.662	0.707
NCI-H1666	0.586	0.563	0.602	0.562	0.891	1.17	1.05	1	1	1.02	1.05	1.03	0.876	0.627	0.879	0.932	0.413	0.941
HCC-366	0.565	0.584	0.633	0.606	1.04	1.01	1.02	1.03	1	1.1	1.03	0.432	0.565	0.855	1.18	1.16	0.663	–
NCI-H2170	0.379	0.424	0.415	0.458	0.923	1.06	1.03	1.06	0.962	0.972	1.06	0.729	0.892	0.524	0.54	0.662	0.516	0.294
NCI-H727	0.529	0.657	0.67	0.522	0.931	1.06	1.06	0.884	0.817	0.888	0.964	0.806	0.668	0.39	0.44	0.46	0.325	0.381
RERF-LC-KJ	0.376	0.443	0.537	0.477	0.923	1.04	1.07	1.02	0.98	1.06	1.06	0.781	0.827	1.09	0.64	1.03	0.842	0.738
NCI-H2342	0.62	0.61	0.595	0.546	1.08	0.839	0.952	0.974	1	0.964	1.01	0.916	0.93	–	–	–	–	–
Calu-6	–	–	–	–	0.955	1.04	0.917	0.533	0.98	1.06	1.11	0.724	0.503	0.798	0.809	0.949	0.316	0.579
LC-2-ad	0.568	0.707	0.605	0.677	0.934	1.1	1.03	0.957	0.965	0.987	1.04	0.539	0.312	0.514	0.479	0.453	0.101	0.18
